Laboratory results reported in US8563714B2, “Bridged spiro [2.4] heptane derivatives as ALX receptor and/or FPRL2 agonists” (Actelion Pharmaceuticals Ltd., priority 2009, dated 2013).

Assays:
human ALX receptor = molecular target: T1, human ALX receptor (Homo sapiens, UniProt P25090); assay: Intracellular calcium measurements (FLIPR), agonistic activity in HEK293-hALXR-Gα16 cells; assay type: cell-based; details: Fluo-4 calcium FLIPR, normalized to WKYMVm 10 nM
T1 construct: expressed in transfected cells; host or cells: HEK293 (HEK293-hALXR-Gα16)
T1 sequence (P25090 1-351): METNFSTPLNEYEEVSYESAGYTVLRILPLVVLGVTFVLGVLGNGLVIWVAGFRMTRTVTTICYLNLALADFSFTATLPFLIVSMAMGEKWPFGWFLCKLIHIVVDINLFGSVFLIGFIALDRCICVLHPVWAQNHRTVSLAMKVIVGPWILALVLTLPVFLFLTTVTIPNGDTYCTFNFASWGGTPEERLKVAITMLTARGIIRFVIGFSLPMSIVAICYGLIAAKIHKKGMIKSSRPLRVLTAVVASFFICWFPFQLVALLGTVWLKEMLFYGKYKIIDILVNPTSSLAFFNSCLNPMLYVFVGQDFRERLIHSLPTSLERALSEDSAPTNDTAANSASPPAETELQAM
Method in brief: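 HEK293 cells expressing hALXR and Gα16 were loaded with 1 μM Fluo-4 AM and 20 mM HEPES for 60 min at 37°C, then exposed to serially diluted compound. FLIPR fluorescence was read at ex 488/em 540 nm. Baseline-subtracted peak responses were normalized to 10 nM WKYMVm.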

human FPRL2 = molecular target: T2, human FPRL2 (Homo sapiens, UniProt P25089); assay: Intracellular calcium measurements (FLIPR), agonistic activity in HEK293-hFPRL2-Gα16 cells; assay type: cell-based; details: Fluo-4 calcium FLIPR, normalized to GLY14-Humanin 100 nM
T2 construct: expressed in transfected cells; host or cells: HEK293 (HEK293-hFPRL2-Gα16)
T2 sequence (P25089 1-353): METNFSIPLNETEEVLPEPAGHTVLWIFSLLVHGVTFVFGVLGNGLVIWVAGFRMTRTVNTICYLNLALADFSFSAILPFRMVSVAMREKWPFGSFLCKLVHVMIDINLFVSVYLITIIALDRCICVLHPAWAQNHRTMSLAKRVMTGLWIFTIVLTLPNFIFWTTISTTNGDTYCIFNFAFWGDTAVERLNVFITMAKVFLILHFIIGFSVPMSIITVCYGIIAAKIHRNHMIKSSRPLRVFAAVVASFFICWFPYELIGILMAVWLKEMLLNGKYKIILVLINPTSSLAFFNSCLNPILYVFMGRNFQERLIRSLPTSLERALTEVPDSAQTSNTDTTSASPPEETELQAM
Method in brief: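 Peak values after baseline subtraction are expressed relative to 100 nM Gly14-Humanin; compounds diluted in assay buffer from 10 mM DMSO stocks.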

SMILES | EC50 (human ALX receptor) | EC50 (human FPRL2)
O=C(NC1CCNCC1)[C@H]1[C@H](C(=O)Nc2ncc(Br)s2)[C@@H]2C=C[C@H]1C21CC1 [Example 323, (5R)—N^5-(5-Bromo-thiazol-2-yl)-(6R)—N^6-(piperidin-4-yl)-(4S,7R)-[4,7-ethenylene-spiro[2.4]heptane]-5,6-dicarboxamide] | 17 nM | 4690 nM
NCC1CCN(C(=O)[C@H]2[C@H](C(=O)Nc3ncc(Br)s3)[C@@H]3C=C[C@H]2C32CC2)CC1 [Example 325, (5R)—N^5-(5-Bromo-thiazol-2-yl)-(6R)—N^6,N^6-(3-(aminomethyl)pentane-1,5-diyl)-(4S,7R)-[4,7-ethenylene-spiro[2.4]heptane]-5,6-dicarboxamide] | 19 nM | > 14100 nM
NCCCCCNC(=O)[C@H]1[C@H](C(=O)NCc2ccc(Br)cc2F)[C@@H]2CC[C@H]1C21CC1 [Example 326, (5R)—N^5-(4-Bromo-2-fluorophenyl-methyl)-(6R)—N^6-(5-amino-pentyl)-(4S,7R)-[4,7-ethylene-spiro[2.4]heptane]-5,6-dicarboxamide] | 22 nM | 930 nM
O=C(NC1CCNCC1)[C@H]1[C@H](C(=O)Nc2ncc(Br)s2)[C@@H]2CC[C@H]1C21CC1 [Example 330, (5R)—N^5-(5-Bromo-thiazol-2-yl)-(6R)—N^6-(piperidin-4-yl)-(4S,7R)-[4,7-ethylene-spiro[2.4]heptane]-5,6-dicarboxamide] | 24 nM | 4420 nM
CC(C)CNC(=O)[C@H]1[C@H](C(=O)Nc2ncc(Br)s2)[C@@H]2CC[C@H]1C21CC1 [Example 331, (5R)—N^5-(5-Bromo-thiazol-2-yl)-(6R)—N^6-(isobutyl)-(4S,7R)-[4,7-ethylene-spiro[2.4]heptane]-5,6-dicarboxamide] | 82 nM | 8250 nM
CC(C)(C)OC(=O)NCCCCNC(=O)[C@H]1[C@H](C(=O)Nc2ncc(Br)s2)[C@@H]2CC[C@H]1C21CC1 [Example 332, (5R)—N^5-(5-Bromo-thiazol-2-yl)-(6R)—N^6-(4-tert-butoxycarbonyl-amino-butyl)-(4S,7R)-[4,7-ethylene-spiro[2.4]heptane]-5,6-dicarboxamide] | 467 nM | 3540 nM
CC(C)(C)OC(=O)NCCCCCNC(=O)C1C(C(=O)Nc2ncc(Br)s2)C2CCC1C21CC1 [Example 333, (5R)—N^5-(5-Bromo-thiazol-2-yl)-(6R)—N^6-(5-tert-butoxycarbonyl-amino-pentyl)-(4S,7R)-[4,7-ethylene-spiro[2.4]heptane]-5,6-dicarboxamide] | 519 nM | 1240 nM
NCCCCCNC(=O)[C@H]1[C@H](C(=O)Nc2ncc(Br)s2)[C@@H]2CC[C@H]1C21CC1 [Example 334, (5R)—N^5-(5-Bromo-thiazol-2-yl)-(6R)—N^6-(5-amino-pentyl)-(4S,7R)-[4,7-ethylene-spiro[2.4]heptane]-5,6-dicarboxamide] | 0.45 nM | 230 nM
NCCCCNC(=O)[C@H]1[C@H](C(=O)Nc2ncc(Br)s2)[C@@H]2CC[C@H]1C21CC1 [Example 335, (5R)—N^5-(5-Bromo-thiazol-2-yl)-(6R)—N^6-(4-amino-butyl)-(4S,7R)-[4,7-ethylene-spiro[2.4]heptane]-5,6-dicarboxamide] | 0.5 nM | 1300 nM
NCC1CCN(C(=O)C2C(C(=O)Nc3ncc(Br)s3)C3CCC2C32CC2)CC1 [Example 336, (5R)—N^5-(5-Bromo-thiazol-2-yl)-(6R)—N^6,N^6-(3-(aminomethyl)pentane-1,5-diyl)-(4S,7R)-[4,7-ethylene-spiro[2.4]heptane]-5,6-dicarboxamide] | 6.2 nM | 1490 nM
O=C(NCC1CCNCC1)[C@H]1[C@H](C(=O)Nc2ncc(Br)s2)[C@@H]2CC[C@H]1C21CC1 [Example 337, (5R)—N^5-(5-Bromo-thiazol-2-yl)-(6R)—N^6-(piperidin-4-yl-methyl)-(4S,7R)-[4,7-ethylene-spiro[2.4]heptane]-5,6-dicarboxamide] | 7.3 nM | 1210 nM
CC(C)(C)C1CCC(NC(=O)C2C(C(=O)NCCCCN3CCCC3)C3C=CC2C32CC2)CC1 (stereo not drawn) [Example 342, (5R*)—N^5-(4-tert-Butyl-cyclohexyl)-(6R*)—N^6-(4-pyrrolidino-butyl)-(4S*,7R*)-[4,7-ethenylene-spiro[2.4]heptane]-5,6-dicarboxamide] | > 2390 nM | 100 nM

Now from value to compound:

EC50 (human ALX receptor) | EC50 (human FPRL2) | SMILES
5.7 nM | 1540 nM | O=C(NCC1CCNCC1)C1C(C(=O)Nc2ncc(Br)s2)C2C=CC1C21CC1 [Example 324, (5R)—N^5-(5-Bromo-thiazol-2-yl)-(6R)—N^6-(piperidin-4-yl-methyl)-(4S,7R)-[4,7-ethenylene-spiro[2.4]heptane]-5,6-dicarboxamide]
40 nM | 27 nM | O=C(NCCCCN1CCCC1)[C@H]1[C@H](C(=O)NCc2ccc(Br)c(F)c2F)[C@@H]2C=C[C@H]1C21CC1 [Example 327, (5R)—N^5-(4-Bromo-2,3-difluorophenyl-methyl)-(6R)—N^6-(4-pyrrolidino-butyl)-(4S,7R)-[4,7-ethenylene-spiro[2.4]heptane]-5,6-dicarboxamide]
46 nM | 60 nM | O=C(NCCCCN1CCCC1)[C@H]1[C@H](C(=O)NCc2cc(F)c(Br)c(F)c2)[C@@H]2C=C[C@H]1C21CC1 [Example 328, (5R)—N^5-(4-Bromo-3,5-difluorophenyl-methyl)-(6R)—N^6-(4-pyrrolidino-butyl)-(4S,7R)-[4,7-ethenylene-spiro[2.4]heptane]-5,6-dicarboxamide]
301 nM | 64 nM | O=C(NCCCCN1CCCC1)[C@H]1[C@H](C(=O)NCc2cc(F)c(Br)cc2F)[C@@H]2C=C[C@H]1C21CC1 [Example 329, (5R)—N^5-(4-Bromo-2,5-difluorophenyl-methyl)-(6R)—N^6-(4-pyrrolidino-butyl)-(4S,7R)-[4,7-ethenylene-spiro[2.4]heptane]-5,6-dicarboxamide]
168 nM | 139 nM | O=C(NCCCCN1CCCC1)[C@H]1[C@H](C(=O)Nc2cnc(Br)c(F)c2)[C@@H]2C=C[C@H]1C21CC1 [Example 338, (5R)—N^5-(2-Bromo-3-fluoro-pyridin-5-yl)-(6R)—N^6-(4-pyrrolidino-butyl)-(4S,7R)-[4,7-ethenylene-spiro[2.4]heptane]-5,6-dicarboxamide]
3900 nM | 30 nM | Cc1ccc(CCNC(=O)C2C(C(=O)NCCCCN3CCCC3)C3C=CC2C32CC2)cc1 (stereo not drawn) [Example 381, (5R*)—N^5-(2-(4-Methylphenyl)ethyl)-(6R*)—N^6-(4-pyrrolidino-butyl)-(4S*,7R*)-[4,7-ethenylene-spiro[2.4]heptane]-5,6-dicarboxamide]
6360 nM | 52 nM | O=C(NCCCCN1CCCC1)C1C(C(=O)NCCc2ccc(F)cc2)C2C=CC1C21CC1 (stereo not drawn) [Example 382, (5R*)—N^5-(2-(4-Fluorophenyl)ethyl)-(6R*)—N^6-(4-pyrrolidino-butyl)-(4S*,7R*)-[4,7-ethenylene-spiro[2.4]heptane]-5,6-dicarboxamide]
2910 nM | 254 nM | CCOc1ccc(CNC(=O)C2C(C(=O)NCCCCN3CCCC3)C3C=CC2C32CC2)cc1 (stereo not drawn) [Example 386, (5R*)—N^5-(4-Ethoxyphenyl-methyl)-(6R*)—N^6-(4-pyrrolidino-butyl)-(4S*,7R*)-[4,7-ethenylene-spiro[2.4]heptane]-5,6-dicarboxamide]
8270 nM | 26 nM | O=C(NCCCCN1CCCC1)[C@H]1[C@H](C(=O)NCCc2ccc(Cl)cc2)[C@@H]2C=C[C@H]1C21CC1 [Example 387, (5R)—N^5-(2-(4-Chlorophenyl)ethyl)-(6R)—N^6-(4-pyrrolidino-butyl)-(4S,7R)-[4,7-ethenylene-spiro[2.4]heptane]-5,6-dicarboxamide]
> 25000 nM | 623 nM | CN(C)CCNC(=O)[C@H]1[C@H](C(=O)NCCc2ccc(Cl)cc2)[C@@H]2C=C[C@H]1C21CC1 [Example 388, (5R)—N^5-(2-(4-Chlorophenyl)ethyl)-(6R)—N^6-(2-dimethylamino-ethyl)-(4S,7R)-[4,7-ethenylene-spiro[2.4]heptane]-5,6-dicarboxamide]
> 25000 nM | 554 nM | O=C(NCCc1ccccn1)[C@H]1[C@H](C(=O)NCCc2ccc(Cl)cc2)[C@@H]2C=C[C@H]1C21CC1 [Example 389, (5R)—N^5-(2-(4-Chlorophenyl)ethyl)-(6R)—N^6-(2-(pyridin-2-yl)ethyl)-(4S,7R)-[4,7-ethenylene-spiro[2.4]heptane]-5,6-dicarboxamide]
